Experimental data as given in patent publication US9328088B2, “Luminescent probes for biological labeling and imaging, and process for preparing the same” (CENTRE NATIONAL DE LA RECHERCHE SCIENTIFIQUE, priority 2011, dated 2016).
Several values for one entry are separate records, joined by “and”; a condition that tells them apart may be missing. Identical values can stand only once.

What was measured:
Format in all cases: physicochemical
[1] = Stability of the terbium complexes in various buffers (luminescence half-life τ)
From the text: By way of example, the stability of the terbium complexes synthesized from ligands (I-1) to (I-4) in accordance with the invention in various buffers is given in Table 2 below. By way of comparison, Table 2 also gives the stability of a terbium complex TbL4 of the prior art corresponding to the following formula: […]

[2] = Emission properties: luminescence half-life τ and luminescence quantum yield φ in H2O and D2O; details: for Emission τ (luminescence half-life): error estimated ±5%; for Emission φ (luminescence quantum yield): error estimated ±15%
From the text: The complexes according to the invention have varied applications, depending on the nature of the substituents of the pyridyl group of the ligand.
By way of example, all of the absorption and emission properties of the terbium complexes synthesized from ligands (I-1) to (I-4) in accordance with the invention are summarized in Table 1 below:
The parameters φ and τ represent, respectively, the luminescence quantum yields and the luminescence half-lives. They may be measured in water and in D2O.

[3] = Absorption properties of the terbium complexes; details: 0.01M TRIS/HCl buffer at pH = 7.0
From the text: By way of example, all of the absorption and emission properties of the terbium complexes synthesized from ligands (I-1) to (I-4) in accordance with the invention are summarized in Table 1 below: […]

SMILES | τ ([1]; H2O, estimated error ±5%) [ms] | τ ([1]; Phosphate 0.1M, pH = 7.0) [ms] | τ ([1]; Tris 50 mM-Serum 50%, pH = 7.0) [ms] | τ ([1]; Tris 0.1M, pH = 7.0) [ms] | τ ([1]; Tris 0.1M-EDTA 10 mM, pH = 7.0) [ms] | τ ([1]; Tris 0.1M-KF 400 mM, pH = 7.0) [ms] | quantum yields [2] | Emission τ (luminescence half-life) ([2]; D2O) [s] | Emission φ (luminescence quantum yield) ([2]; D2O) [%] | Emission τ (luminescence half-life) ([2]; H2O) [s] | Emission φ (luminescence quantum yield) ([2]; H2O) [%] | Absorption λabs [3]
CCOP(=O)([O-])CN(CC(=O)[O-])Cc1ccn(-c2cc(C#Cc3cc(OCCOC)c(C(=O)NCCCC(=O)[O-])cc3OCCOC)cc(-n3ccc(CN(CC(=O)[O-])CP(=O)([O-])OCC)n3)n2)n1.[Na+].[Na+].[Na+].[Na+].[Na+].[Tb+3] [Tb(I-5)] | 2.6 | 2.6 | 2.5 | 2.6 | 2.6 | 2.5 | virtually quantitative | 0.0031 | 96 | 0.0026 | 88 | 283 nm and 328 nm
CCOP(=O)([O-])CN(CC(=O)[O-])Cc1ccn(-c2cc(C#Cc3cc(OCCOC)c(C#CCCCCC(=O)[O-])cc3OCCOC)cc(-n3ccc(CN(CC(=O)[O-])CP(=O)([O-])OCC)n3)n2)n1.[Na+].[Na+].[Na+].[Na+].[Na+].[Tb+3] [Tb(I-6)] | 2.6 | 2.6 | 2.3 | 2.4 | 2.5 | 2.3 | – | 0.0032 | 35 | 0.0026 | 26 | 275 nm and 328 nm
CCOP(=O)([O-])CN(Cc1ccn(-c2cc(C#Cc3cc(OCCOC)c(C#CCCCCC(=O)[O-])cc3OCCOC)cc(-n3ccc(CN(CP(=O)([O-])OCC)CP(=O)([O-])OCC)n3)n2)n1)CP(=O)([O-])OCC.[Na+].[Na+].[Na+].[Na+].[Na+].[Tb+3] [Tb(I-8)] | 3.2 | 3.2 | 3.0 | 3.1 | 3.1 | 3.0 | – | 0.0035 | 30 | 0.0032 | 26 | 272 nm and 327 nm
